# Assay results taken from PubChem BioAssay AID330 (DTP/NCI, 2004).
# Where “and” joins values, the source holds several entries; their conditions need not be identical. Equal values may be shown once. Inconclusive results and toxic doses are left out. Square brackets hold non-standard residues; d marks the D form. Peptide text beside a SMILES is read from it. ξ: configuration not given here. ξP = O=C(O)C1CCCN1
# System: P388 leukemia ip, CD2F1 mice, survival T/C
# Assay: NCI In Vivo Anticancer Drug Screen. Data for tumor model P388 Leukemia (intraperitoneal) in CD2F1 (CDF1) mice
# Settings: endpoint: median survival time, higher = longer survival
# Summary of the method: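 Mice carrying the transplanted tumor received test compound or vehicle. Survival was recorded in each group, and the value is the treated-group measurement divided by that of the vehicle-treated control group.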
# [1] = dose: 50.0 mg/kg/injection, schedule: Q01DX005 (ip), vehicle: Klucel (hydroxypropylcellulose) (HPC)
# [2] = dose: 100.0 mg/kg/injection, schedule: Q01DX005 (ip), vehicle: Klucel (hydroxypropylcellulose) (HPC)
# [3] = dose: 200.0 mg/kg/injection, schedule: Q01DX005 (ip), vehicle: Klucel (hydroxypropylcellulose) (HPC)
# [4] = dose: 60.0 mg/kg/injection, schedule: Q01DX005 (ip), vehicle: saline with Tween-80
# [5] = dose: 120.0 mg/kg/injection, schedule: Q01DX005 (ip), vehicle: saline with Tween-80
# [6] = dose: 240.0 mg/kg/injection, schedule: Q01DX005 (ip), vehicle: saline with Tween-80
# [7] = dose: 100.0 mg/kg/injection, schedule: Q04DX003 (ip), vehicle: saline
# [8] = dose: 12.5 mg/kg/injection, schedule: Q04DX003 (ip), vehicle: saline with Tween-80
# [9] = dose: 25.0 mg/kg/injection, schedule: Q04DX003 (ip), vehicle: saline with Tween-80
# [10] = dose: 50.0 mg/kg/injection, schedule: Q04DX003 (ip), vehicle: saline with Tween-80
smiles,measurement,setting,value
C=CC(C)(C)c1cc(O)c(OC)cc1O,T/C,[1],95 % of control
same,T/C,[2],102 % of control
same,T/C,[3],100 % of control
Cn1c2c(c(=O)c3ccccc31)CCC(C)(C)O2,T/C,[1],100 % of control
same,T/C,[2],91 % of control
same,T/C,[3],98 % of control
Nc1nc([Se])c2ncn(C3CC(O)C(CO)O3)c2n1 (stereo not drawn),T/C,"dose: 12.5 mg/kg/injection, schedule: Q01DX009 (ip), vehicle: Klucel (hydroxypropylcellulose) (HPC)",160 % of control
same,T/C,"dose: 25.0 mg/kg/injection, schedule: Q01DX009 (ip), vehicle: Klucel (hydroxypropylcellulose) (HPC)",169 % of control and 173 % of control
same,T/C,"dose: 50.0 mg/kg/injection, schedule: Q01DX009 (ip), vehicle: Klucel (hydroxypropylcellulose) (HPC)",112 % of control
O=C1c2ccccc2C(=O)N1CCCN1CCOCCOCCN(CCCN2C(=O)c3ccccc3C2=O)CCOCCOCC1,T/C,"dose: 25.0 mg/kg/injection, schedule: Q04DX002 (ip), vehicle: saline + Tween-80 + alcohol",100 % of control
same,T/C,"dose: 50.0 mg/kg/injection, schedule: Q04DX002 (ip), vehicle: saline + Tween-80 + alcohol",104 % of control
same,T/C,"dose: 100.0 mg/kg/injection, schedule: Q04DX002 (ip), vehicle: saline + Tween-80 + alcohol",102 % of control and 95 % of control
[N-]=[N+]=Nc1nnc(-c2ccccc2)c(=O)[nH]1,T/C,"dose: 100.0 mg/kg/injection, schedule: Q04DX002 (ip), vehicle: saline",101 % of control
same,T/C,"dose: 200.0 mg/kg/injection, schedule: Q04DX002 (ip), vehicle: saline",101 % of control
same,T/C,"dose: 400.0 mg/kg/injection, schedule: Q04DX002 (ip), vehicle: saline",96 % of control
Clc1cccc(C(Nc2nncs2)Nc2nncs2)c1Cl,T/C,[4],89 % of control
same,T/C,[5],100 % of control
same,T/C,[6],96 % of control
OCC(O)COCCCCCCCCCCCCCC1C=CCC1 (stereo not drawn),T/C,[7],95 % of control
same,T/C,"dose: 200.0 mg/kg/injection, schedule: Q04DX003 (ip), vehicle: saline",89 % of control
same,T/C,"dose: 400.0 mg/kg/injection, schedule: Q04DX003 (ip), vehicle: saline",96 % of control
CC(=O)OCC12CCC(C)=CC1O[C@H]1[C@@H](OC(C)=O)[C@H](OC(C)=O)[C@]2(C)[C@@]12CO2 (stereo partly drawn),T/C,"dose: 0.2 mg/kg/injection, schedule: Q01DX009 (ip), vehicle: saline + alcohol",115 % of control
same,T/C,"dose: 0.8 mg/kg/injection, schedule: Q01DX009 (ip), vehicle: saline + alcohol",173 % of control
same,T/C,"dose: 2.0 mg/kg/injection, schedule: Q04DX003 (ip), vehicle: saline + alcohol",120 % of control
CCCCCCCCCC1(O)OC(=O)C(C)=C1C (stereo not drawn),T/C,[8],115 % of control
same,T/C,[9],100 % of control
same,T/C,[10],102 % of control
CC(=O)N1CCCC2=C1CCC2,T/C,"dose: 25.0 mg/kg/injection, schedule: Q04DX003 (ip), vehicle: saline",104 % of control
same,T/C,"dose: 50.0 mg/kg/injection, schedule: Q04DX003 (ip), vehicle: saline",100 % of control
same,T/C,[7],94 % of control and 97 % of control
O=NNc1nc2ccc([N+](=O)[O-])cc2s1,T/C,"dose: 3.12 mg/kg/injection, schedule: Q01DX009 (ip), vehicle: water",95 % of control
same,T/C,"dose: 6.25 mg/kg/injection, schedule: Q01DX009 (ip), vehicle: water",95 % of control
same,T/C,"dose: 12.5 mg/kg/injection, schedule: Q01DX009 (ip), vehicle: water",103 % of control and 97 % of control
same,T/C,"dose: 25.0 mg/kg/injection, schedule: Q01DX009 (ip), vehicle: water",106 % of control and 109 % of control and 112 % of control
same,T/C,"dose: 50.0 mg/kg/injection, schedule: Q01DX009 (ip), vehicle: water",112 % of control and 118 % of control
Cc1onc(-c2c(F)cccc2Cl)c1-c1ncc(-c2ccc(Br)cc2)o1,T/C,[4],100 % of control
same,T/C,[5],104 % of control
same,T/C,[6],101 % of control
NCC(=O)N1CCCC1C(=O)NCC(=O)NCC(=O)O (stereo not drawn) (H-G[ξP]GG-OH),T/C,"dose: 50.0 mg/kg/injection, schedule: Q01DX005 (ip), vehicle: saline",101 % of control
same,T/C,"dose: 100.0 mg/kg/injection, schedule: Q01DX005 (ip), vehicle: saline",107 % of control
same,T/C,"dose: 100.0 mg/kg/injection, schedule: Q01DX005 (ip), vehicle: water",105 % of control
same,T/C,"dose: 200.0 mg/kg/injection, schedule: Q01DX005 (ip), vehicle: saline",99 % of control
same,T/C,"dose: 200.0 mg/kg/injection, schedule: Q01DX005 (ip), vehicle: water",107 % of control
same,T/C,"dose: 400.0 mg/kg/injection, schedule: Q01DX005 (ip), vehicle: water",110 % of control
COc1c(Cc2ccccc2O)c(O)cc(O)c1C(=O)CCc1ccccc1,T/C,"dose: 0.25 mg/kg/injection, schedule: Q01DX009 (ip), vehicle: Klucel (hydroxypropylcellulose) (HPC)",100 % of control
same,T/C,"dose: 0.5 mg/kg/injection, schedule: Q01DX009 (ip), vehicle: Klucel (hydroxypropylcellulose) (HPC)",101 % of control
same,T/C,"dose: 1.0 mg/kg/injection, schedule: Q01DX009 (ip), vehicle: Klucel (hydroxypropylcellulose) (HPC)",107 % of control
same,T/C,"dose: 2.0 mg/kg/injection, schedule: Q01DX009 (ip), vehicle: Klucel (hydroxypropylcellulose) (HPC)",113 % of control
same,T/C,"dose: 4.0 mg/kg/injection, schedule: Q01DX009 (ip), vehicle: Klucel (hydroxypropylcellulose) (HPC)",104 % of control
same,T/C,"dose: 8.0 mg/kg/injection, schedule: Q01DX009 (ip), vehicle: Klucel (hydroxypropylcellulose) (HPC)",100 % of control
same,T/C,"dose: 16.0 mg/kg/injection, schedule: Q01DX009 (ip), vehicle: Klucel (hydroxypropylcellulose) (HPC)",96 % of control
same,T/C,"dose: 32.0 mg/kg/injection, schedule: Q01DX009 (ip), vehicle: Klucel (hydroxypropylcellulose) (HPC)",100 % of control
CC(C)=CCC/C(C)=C\CN(C)C,T/C,"dose: 6.25 mg/kg/injection, schedule: Q04DX002 (ip), vehicle: saline with Tween-80",100 % of control
same,T/C,"dose: 12.5 mg/kg/injection, schedule: Q04DX002 (ip), vehicle: saline with Tween-80",103 % of control
same,T/C,"dose: 25.0 mg/kg/injection, schedule: Q04DX002 (ip), vehicle: saline with Tween-80",94 % of control
COc1cccc2c1C(=O)c1c(O)c3c(c(O)c1C2=O)CC(O)(C(=O)COC1CC(OC(C)=O)C(OC(C)=O)C(C)O1)CC3OC1CC(OC(C)=O)C(OC(C)=O)C(C)O1 (stereo not drawn),T/C,"dose: 3.13 mg/kg/injection, schedule: Q04DX003 (ip), vehicle: saline with Tween-80",100 % of control
same,T/C,"dose: 6.25 mg/kg/injection, schedule: Q04DX003 (ip), vehicle: saline with Tween-80",100 % of control
same,T/C,[8],100 % of control
same,T/C,[9],95 % of control
same,T/C,[10],100 % of control
Clc1ccc(C2N3Cc4ccccc4CN2c2ccccc23)cc1,T/C,"dose: 100.0 mg/kg/injection, schedule: Q01DX001 (ip), vehicle: Klucel (hydroxypropylcellulose) (HPC)",100 % of control
same,T/C,"dose: 200.0 mg/kg/injection, schedule: Q01DX001 (ip), vehicle: Klucel (hydroxypropylcellulose) (HPC)",98 % of control
same,T/C,"dose: 400.0 mg/kg/injection, schedule: Q01DX001 (ip), vehicle: Klucel (hydroxypropylcellulose) (HPC)",96 % of control
Cc1c(Cl)c(C)c(Cl)c(CCl)c1Cl,T/C,"dose: 18.75 mg/kg/injection, schedule: Q04DX003 (ip), vehicle: saline sonified",95 % of control
same,T/C,"dose: 37.5 mg/kg/injection, schedule: Q04DX003 (ip), vehicle: saline sonified",109 % of control
same,T/C,"dose: 75.0 mg/kg/injection, schedule: Q04DX003 (ip), vehicle: saline sonified",109 % of control
c1ccc2[nH]c(CN(CCN(Cc3nc4ccccc4[nH]3)Cc3nc4ccccc4[nH]3)Cc3nc4ccccc4[nH]3)nc2c1,T/C,"dose: 1.56 mg/kg/injection, schedule: Q01DX005 (ip), vehicle: DMSO",104 % of control
same,T/C,"dose: 3.12 mg/kg/injection, schedule: Q01DX005 (ip), vehicle: DMSO",106 % of control
same,T/C,"dose: 6.25 mg/kg/injection, schedule: Q01DX005 (ip), vehicle: DMSO",105 % of control
same,T/C,"dose: 12.5 mg/kg/injection, schedule: Q01DX005 (ip), vehicle: DMSO",107 % of control
same,T/C,"dose: 25.0 mg/kg/injection, schedule: Q01DX005 (ip), vehicle: DMSO",108 % of control
COc1ccc(Cc2cc3c(cc2OCC(=O)Nc2ccccn2)OCO3)cc1,T/C,"dose: 6.25 mg/kg/injection, schedule: Q01DX005 (ip), vehicle: saline with Tween-80",92 % of control
same,T/C,"dose: 12.5 mg/kg/injection, schedule: Q01DX005 (ip), vehicle: saline with Tween-80",90 % of control
same,T/C,"dose: 25.0 mg/kg/injection, schedule: Q01DX005 (ip), vehicle: saline with Tween-80",86 % of control
same,T/C,"dose: 100.0 mg/kg/injection, schedule: Q01DX005 (ip), vehicle: saline with Tween-80",90 % of control
same,T/C,"dose: 200.0 mg/kg/injection, schedule: Q01DX005 (ip), vehicle: saline with Tween-80",90 % of control
C1=CC(Cc2ccccc2)NC1 (stereo not drawn),T/C,"dose: 100.0 mg/kg/injection, schedule: Q01DX001 (ip), vehicle: distilled water + alcohol",100 % of control
same,T/C,"dose: 200.0 mg/kg/injection, schedule: Q01DX001 (ip), vehicle: distilled water + alcohol",100 % of control
